Measured values published in patent US8986994B2, “Substituted pyridines and pyrimidines” (Technische Universitaet Wien, priority 2009, dated 2015).
Where two headings read alike, the source gives them in different places.

Key:
TOPflash (C2C12 cells) = assay: TOPflash luciferase reporter assay in C2C12 cells; type: cell-based; conditions: Mus musculus, read-out: TOPflash activity
[1] = test system: ANF (human primary skeletal myoblasts); assay: ANF reporter assay in human primary skeletal myoblasts; type: cell-based; conditions: 1 μM for 6 days, two experiments
ANF (C2C12 cells) = assay: ANF promoter luciferase reporter assay in C2C12 cells; type: cell-based, mouse; conditions: for luciferase signal in all three reporter assays: ANF, TOPflash and Nkx2.5 reporter assays together; for fold induction at 1 µM: Mus musculus, read-out: ANF activity
TOPflash (P19 cells) = assay: TOPflash luciferase reporter assay in P19 cells; type: cell-based; conditions: Mus musculus, read-out: TOPflash activity
Nkx2.5 (C2C12 cells) = assay: Nkx2.5 luciferase reporter assay in C2C12 cells; type: cell-based; conditions: Mus musculus, read-out: Nkx2.5 activity
ANF (P19 cells) = assay: ANF promoter luciferase reporter assay in P19 cells; type: cell-based, mouse; conditions: for fold induction at 1 µM: Mus musculus, read-out: ANF activity; for luciferase signal in all three reporter assays: ANF, TOPflash and Nkx2.5 reporter assays together
Nkx2.5 (P19 cells) = assay: Nkx2.5 luciferase reporter assay in P19 cells; type: cell-based; conditions: Mus musculus, read-out: Nkx2.5 activity
[2] = test system: Ca currents in C2C12 cells; assay: Electrophysiological testing, whole cell patch clamp: Ca currents; type: cell-based, mouse
[3] = test system: Na currents in C2C12 cells; type: cell-based, mouse; conditions: 1 μM for 8 days
[4] = 192 h, C2C12 cells, 1 μM for 8 days, luciferase signal vs control (untreated cells)
[5] = 192 h, P19 cells, 1 μM for 8 days, luciferase signal vs control (untreated cells)

SMILES	fold induction at 1 µM (TOPflash (C2C12 cells); [4])	luciferase signal in the ANF reporter assay [1]	luciferase signal in all three reporter assays (ANF (C2C12 cells); C2C12 cells, 1 μM for 8 days)	fold induction at 1 µM (ANF (C2C12 cells); [4])	fold induction at 1 µM (TOPflash (P19 cells); [5])	fold induction at 1 µM (Nkx2.5 (C2C12 cells); [4])	fold induction at 1 µM (ANF (P19 cells); [5])	luciferase signal in all three reporter assays (ANF (P19 cells); P19 cells, 1 μM for 8 days)	fold induction at 1 µM (Nkx2.5 (P19 cells); [5])	activation kinetics of Ca currents [2]	tetrodotoxin (TTX)-resistance of the Na currents [3]	fold induction at 1 µM (TOPflash (C2C12 cells); C2C12, 192 h)	melting point [°C]	fold induction at 1 µM (ANF (C2C12 cells); C2C12, 192 h)	fold induction at 1 µM (TOPflash (P19 cells); P19, 192 h)	fold induction at 1 µM (Nkx2.5 (C2C12 cells); C2C12, 192 h)	fold induction at 1 µM (ANF (P19 cells); P19, 192 h)	fold induction at 1 µM (Nkx2.5 (P19 cells); P19, 192 h)
COc1ccc(Nc2cccc(NCCO)n2)cc1 [example 42, 2-(6-(4-Methoxyphenylamino)pyridin-2-ylamino)ethan-1-ol]	1.3 to 2	generated an increase in the luciferase signal	increase in the luciferase signal in all three reporter assays	1.3 to 2	> 2	1.3 to 2	1.3 to 2	increase in the luciferase signal in all three reporter assays	1.3 to 2									
COc1ccc(Nc2cc(NCCO)ncn2)cc1 [example 1, 2-(6-(4-Methoxyphenylamino)pyrimidine-4-ylamino)ethan-1-ol]	< 1.3			> 2	< 1.3	< 1.3	1.3 to 2		< 1.3	significantly speeds	moderately increase							
c1nc(Nc2ccc(N3CCOCC3)cc2)cc(NC2CCCCC2)n1 [example 5, N^4-Cyclohexyl-N^6-(4-morpholinophenyl)pyrimidine-4,6-diamine]												< 1.3	239 to 240	< 1.3	< 1.3	< 1.3	1.3 to 2	< 1.3
OCCNc1cc(Nc2ccc(N3CCOCC3)cc2)ncn1 [example 4, 2-(6-(4-Morpholinophenylamino)pyrimidin-4-ylamino)ethan-1-ol]	< 1.3			< 1.3	1.3 to 2	< 1.3	< 1.3		< 1.3				204 to 207					
CCNc1cc(Nc2ccc(OC)cc2)ncn1 [example 10, N^4-Ethyl-N^6-(4-methoxyphenyl)pyrimidine-4,6-diamine]			increase in the luciferase signal in all three reporter assays									1.3 to 2	190 to 193	1.3 to 2	< 1.3	1.3 to 2	1.3 to 2	< 1.3
COc1ccc(Nc2cc(NC3CCCCC3)ncn2)cc1 [example 3, N^4-Cyclohexyl-N^6-(4-methoxyphenyl)pyrimidine-4,6-diamine]			increase in the luciferase signal in all three reporter assays					increase in the luciferase signal in all three reporter assays				1.3 to 2	218 to 219	> 2	> 2	> 2	> 2	> 2
COc1ccc(Nc2cc(NCCCO)ncn2)cc1 [example 2, 3-(6-(4-Methoxyphenylamino)pyrimidine-4-ylamino)propan-1-ol]	< 1.3			< 1.3	> 2	1.3 to 2	1.3 to 2		< 1.3		moderately increase		151 to 152					
